Results on one compound are retold here after article PMC3253173 (Free radical biology & medicine, 2011).

This assay concerns the target T1, gp91phox (Homo sapiens, UniProt P04839).
T1 sequence (P04839 2-570): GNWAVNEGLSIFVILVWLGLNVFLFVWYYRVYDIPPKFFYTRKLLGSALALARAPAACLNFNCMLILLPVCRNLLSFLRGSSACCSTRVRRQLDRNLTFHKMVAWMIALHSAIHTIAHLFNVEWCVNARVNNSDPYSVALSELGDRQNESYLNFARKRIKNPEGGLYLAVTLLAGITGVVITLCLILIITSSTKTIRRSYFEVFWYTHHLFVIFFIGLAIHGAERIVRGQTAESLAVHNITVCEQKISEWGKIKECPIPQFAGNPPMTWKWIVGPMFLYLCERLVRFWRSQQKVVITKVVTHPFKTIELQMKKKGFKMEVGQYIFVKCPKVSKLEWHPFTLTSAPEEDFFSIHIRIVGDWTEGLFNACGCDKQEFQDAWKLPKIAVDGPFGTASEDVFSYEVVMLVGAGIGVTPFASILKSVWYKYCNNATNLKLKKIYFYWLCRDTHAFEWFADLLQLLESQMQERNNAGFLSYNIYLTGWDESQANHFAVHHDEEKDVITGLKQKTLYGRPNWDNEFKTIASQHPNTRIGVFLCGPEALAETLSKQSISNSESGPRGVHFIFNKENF
T1 sequence (P13498 2-195 partner): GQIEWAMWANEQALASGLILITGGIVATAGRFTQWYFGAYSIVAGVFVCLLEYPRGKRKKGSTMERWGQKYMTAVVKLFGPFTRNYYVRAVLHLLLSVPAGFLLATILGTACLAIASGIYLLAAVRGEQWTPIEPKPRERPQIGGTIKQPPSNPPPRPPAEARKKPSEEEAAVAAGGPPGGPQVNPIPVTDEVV
Kind of assay: saturation radioligand binding on COS-cytob558 membranes.

One may read the Kd as the constant that tells how readily two partners part at equilibrium. Lower therefore signals a tighter complex.

The structures appear in SMILES notation.

Consider `C=C(C)[C@H]1Cc2c(ccc3c2O[C@@H]2COc4cc(OC)c(OC)cc4[C@@H]2C3=O)O1` [rotenone], for which the Kd is 21.2 ± 3.47 nM.
